Literature values as cited in patent US8067011B2, “Compositions and methods for treating B-cell malignancies” (Chimeros, Inc., priority 2006, dated 2011).

Columns and labels:
[1] = system: relapsed or refractory, low-grade or follicular, CD20-positive, B-cell non-Hodgkin's lymphoma; conditions: low-grade or follicular NHL
[2] = system: diffuse large B-cell, CD20-positive, non-Hodgkin's lymphoma; conditions: added to CHOP or other anthracycline-based chemotherapy, first-line DLBCL

Rituxan: naked antibody that specifically binds to CD20, used for B cell-derived lymphomas and leukemias
median duration of response, defined as progression free survival [1]: about 1 year | response rate [1]: about 50% | extension of progression free survival over chemotherapy alone [2]: about 1.5 years
